Values of other authors, collected in patent US10822295B2, “Menaquinol compositions and methods of treatment” (Epizon Pharma, Inc., priority 2018, dated 2020).

What was measured:
[1] = test system: incidence of fractures; conditions: in vivo
[2] = test system: normal blood coagulation; conditions: compared to vitamin K1 and MK-4
[3] = compared to MK-4

**Q.** For `CC(C)=CCC/C(C)=C/CC/C(C)=C/CC/C(C)=C/CC1=C(C)C(=O)c2ccccc2C1=O` [MK-4, menaquinone-4], which incidence of fractures [1] is on record?
**A.** decrease the incidence of fractures

**Q.** For `CC(C)=CCC/C(C)=C/CC/C(C)=C/CC/C(C)=C/CC/C(C)=C/CC/C(C)=C/CC/C(C)=C/CC1=C(C)C(=O)c2ccccc2C1=O` [MK-7, menaquinone-7], which “effects on normal blood coagulation” value [2] is on record?
**A.** greater and longer lasting

**Q.** And the half-life in serum [3]?
**A.** long half-life
